Results published in patent US20120003270A1, “6-SUBSTITUTED ISOFLAVONOID COMPOUNDS AND USES THEREOF” (priority 2008, published 2012).

Assays:
RAW 264.7 = experiment: Toxicity in RAW 264.7; type: cell-based, mouse
NFκB = NFκB promoter activity in transfected THP-1 cells (beta-lactamase reporter); type: cell-based, human; details: THP-1 cells, TNFα-stimulated
Description: The assay utilizes a genetically modified THP-1 cell line and GeneBLAzer® beta-lactamase technology (Invitrogen Corp). The human THP-1 monocyte/macrophages contain a stably-transfected beta-lactamase reporter gene under control of the NFkB response element. They respond to stimulation with TNFα, which leads to activation of the NFkB signaling pathway. Co-incubation of cells with TNFα and test material allows quantitative determination of the ability of test material to inhibit TNFα-stimulated beta-lactamase production. An inflammatory index was calculated as the ratio of beta-lactamase product to beta-lactamase substrate.
In brief, genetically modified THP-1 cells were seeded into wells of a 96-well plate (50×10^3 cells/well) in the presence of RPMI 1640 medium (70 μl). TNFα was added to each well (10 μl) to give a final concentration of 7.5 ng/ml. Dialyzed bovine serum was added (10 μl). Test compounds were dissolved in DMSO (10 μL) (5 wells). Each plate contained a no-cell control (4 wells), a no-serum control (4 wells) and two serum controls. Plates were incubated for 5 h at 37° C. to allow for NFkB-stimulated beta-lactamase production. LiveBLAzer™ FRET B/G Substrate (CCF4-AM) substrate was then added to the assay. CCF4-AM is a Förster resonance energy transfer (FRET) based substrate for beta-lactamase developed by Invitrogen Corp. Once CCFA-AM enters a cell, it is converted to negatively charged CCF4 by endogenous esterases. Excitation of this substrate at 409 nm leads to efficient FRET between the coumarin and fluorescein moieties, resulting in a green fluorescence detectable at 530 nm. The presence of beta-lactamase leads to cleavage of CCF4 and results in a loss of FRET, resulting in a robust blue fluorescent signal detectable at 460 nm. Thus, activity of beta-lactamase (a marker of NFkB-promoter activity) is measured as a product to substrate ratio (blue/green fluorescence ratio: 460 nm/530 nm).

TXA2 = TXA2 synthesis in RAW 264.7 (ELISA); type: cell-based, mouse; details: LPS 50 ng/ml, 16 hrs
Description: (§1) The mouse macrophage cell line RAW 264.7 was cultured in DMEM supplemented with foetal calf serum (FCS), 2 mM glutamine and 50 U/ml penicillin/streptomycin. Cells were treated with either test compounds (in 0.025% DMSO) or vehicle alone, and added one hour before 50 ng/ml LPS. After incubation for 16 hrs, culture media was collected for PGE2 or TXB2 measurement by ELISA (Cayman Chemical), and TNFα measurement using an ELISA (Becton Dickinson).

rabbit kidney (RK-13) = experiment: Toxicity in normal cells (MTT), RK-13; type: cell-based; details: Oryctolagus cuniculus, RK-13, 120 h, 5 days, top concentration 150 μM, read-out: Normal cell viability IC50
Description: (§2) Human neonatal fibroblast foreskin (NFF—a gift from Dr. Peter Parsons, Queensland Institute of Medical Research) or rabbit kidney (RK-13—a gift from Prof. Miller Whalley, Macquarie University) cells were seeded into 96 well plates and cultured in RPMI supplemented with 10% FCS (CSL, Australia), penicillin (100 U/ml), streptomycin ([…]), L-glutamine (2 mM) and sodium bicarbonate (1.2 g/L) at 37° C. and 5% CO2 for 24 hours until cells had attached and entered log phase of growth. Test compounds were added in serial two-fold dilutions from 150 μM in triplicate and incubated for a further 5 days. MTT was then added to each well, incubated for 3 hours at 37° C., after which the medium was tipped off. Following the addition of DMSO, the absorbance for each well was read on a plate reader. The assays were repeated at least twice.

iNOS = experiment: NO synthesis in LPS-stimulated RAW 264.7 (Griess); type: cell-based, mouse; details: LPS 50 ng/ml, 16 hrs
Description: The mouse macrophage cell line RAW 264.7 was cultured in DMEM supplemented with foetal calf serum (FCS), 2 mM glutamine and 50 U/ml penicillin/streptomycin. Cells were treated with either the compounds of the formula (I) (in 0.025% DMSO) or vehicle alone, and added one hour before 50 ng/ml LPS, which induces iNOS and the production of NO. After incubation for 16 hrs, culture media was collected. Nitrite concentration is a quantitative indicator of NO production and was determined by the Griess Reaction. Briefly, 100 μL of Griess reagent was added to 50 μL of each supernatant in duplicate. The absorbance at 550 nm was measured (Molecular Devices, SpectraMax 250 microplate spectrophotometer, CA, USA), and nitrite concentrations were determined against a standard curve of sodium nitrite.

PGE2 = PGE2 synthesis in RAW 264.7 (ELISA); type: cell-based, mouse; details: LPS 50 ng/ml, 16 hrs
Description: as §1

TNFα = TNFα synthesis in RAW 264.7 (ELISA); type: cell-based, mouse; details: LPS 50 ng/ml, 16 hrs
Description: as §1

THP-1 cells = experiment: Cytotoxicity in the THP-1 NFκB assay; type: cell-based, human; details: at active concentrations
[1] = test system: neonatal fibroblast foreskin (NFF); experiment: Toxicity in normal cells (MTT), NFF; type: cell-based; details: Homo sapiens, 120 h, 5 days, top concentration 150 μM, read-out: Normal cell viability IC50
Description: as §2

[2] = Free radical scavenging (DPPH); type: biochemical; details: DPPH 0.1 mM, 20 minutes, 517 nm; read-out: Free radical scavenging ability EC50
Description: The antioxidant (free radical trapping) activity of test compounds was assessed using the stable free radical compound 2,2-diphenyl-1-picrylhydrazyl (DPPH). A stock solution of DPPH was prepared at a concentration of 0.1 mM in ethanol and mixed for 10 minutes prior to use. Compound (1) was reacted with DPPH for 20 minutes, after which time the absorbance at 517 nm was determined. The change in absorbance at 517 nm was compared to a reagent blank (DPPH with ethanol alone). The IC50 value was estimated as the concentration of the test compound that caused a 0.6 change in absorbance (with 1.2 absorbance units representing total scavenging of the DPPH radical).

SMILES: COC(=O)CNCc1cc2c(cc1O)OCC(c1ccc(O)cc1)=C2 [Compound (2)]
- Effect on the viability of RAW 264.7 cells (RAW 264.7): little effect on the viability
- Effect on promoter activity of NFκB (in words) (NFκB): active at the highest concentration only
- TXB2 (TXA2; 1 μM): 16.71 ± 3.43 pg/mL
- TXB2 (TXA2; 10 μM): 17.58 ± 7.99 pg/mL
- IC50 (rabbit kidney (RK-13)): > 150 µM
- NO (iNOS; 1 μM): 16.41 ± 0.0 µM
- NO (iNOS; 10 μM): 10.22 ± 0.15 µM
- PGE2 (PGE2; 1 μM): 3180.37 ± 127.29 pg/mL
- PGE2 (PGE2; 10 μM): 2070.69 ± 168.81 pg/mL
- TNFα (TNFα; 1 μM): 35085.88 ± 2273.16 pg/mL
- TNFα (TNFα; 10 μM): 46065.55 ± 1234.32 pg/mL
- Cytotoxicity (THP-1 cells): absence of cytotoxicity
- IC50 [1]: 145 ± 8.1 µM
- EC50 [2]: > 100 µM
